Experimental findings from ChEMBL document CHEMBL5131443, “Discovery of a benzimidazole-based dual FLT3/TrKA inhibitor targeting acute myeloid leukemia” (Bioorg Med Chem, 2022) are described below.

Activity calls are given as the source filed them. No cut-off for these calls is given here.

The target of series [1] is T1, Receptor-type tyrosine-protein kinase FLT3 (Homo sapiens, UniProt P36888). It counts as cell-based, RS4-11.
Series [2] addresses T2, Receptor-type tyrosine-protein kinase FLT3 (Homo sapiens, UniProt P36888, ITD). It counts as cell-based, MV4-11.
Series [3] has as its target T3, Receptor-type tyrosine-protein kinase FLT3 (Homo sapiens, UniProt P36888, D835Y).
Series [4] has as its target Tyrosine-protein kinase ABL1 (Homo sapiens) (UniProt P00519). As to the kind of experiment: Inhibition of His-tagged recombinant human ABL1 at 1 uM.
In series [5] the test system is MOLM-13. As to the kind of experiment: Induction of apoptosis in human MOLM-13 cells assessed as increase number of apoptotic cells at 10 to 50 nM measured after 72 hrs by propidium iodide staining based flow cytometry. In kind it is functional, cell-based. As to conditions: dose 10-50 nM.
In series [6] the test system is MV4-11. As to the kind of experiment: Inhibition of colony formation in human MV4-11 cells at 500 nM measured after 14 days. In kind it is functional, cell-based. To be noted: time 14.0 day.
In series [7] the test system is MOLM-13. As to the kind of experiment: Inhibition of colony formation in human MOLM-13 cells at 500 nM measured after 7 days. It counts as functional, cell-based. As to conditions: time 7.0 day.
Another series relates to KM12. The series can be described thus: Anticancer activity against human KM12 cells assessed as cell viability after 72 hrs by ATP Cell Titer G1oTM assay. To be noted: KM12, 72 h. It counts as functional, cell-based.
For series [8], the system named is Receptor-type tyrosine-protein kinase FLT3 (Homo sapiens), P36888 [UNDEFINED MUTATION]. The series can be described thus: Inhibition of FLT3-ITD mutant in human MOLM-13 cells assessed as decrease in Erk1/2 phosphorylation measured after 24 to 48 hrs by Western blot analysis. It counts as cell-based. To be noted: dose 10-100 nM, time 24-48 hrs, DDE = dose-dependent effect. On the technique in general: Immunoblotting shows a protein as a band on a membrane.

Series [9] shares this test system. The series can be described thus: Inhibition of FLT3-ITD mutant in human MOLM-13 cells assessed as decrease in p-S6 kinase level measured after 24 to 48 hrs by Western blot analysis. In kind it is cell-based. As to conditions: dose 10-100 nM, time 24-48 hrs, DDE = dose-dependent effect.
For series [10] the test system is unchanged. As to the kind of experiment: Inhibition of FLT3-ITD mutant in human MV4-11 cells assessed as decrease in p-S6 kinase level measured after 24 to 48 hrs by Western blot analysis. In kind it is cell-based. As to conditions: dose 10-100 nM, time 24-48 hrs, DDE = dose-dependent effect.
Series [11] has the same test system. As to the kind of experiment: Inhibition of FLT3-ITD mutant in human MV4-11 cells assessed as decrease in Erk1/2 phosphorylation measured after 24 to 48 hrs by Western blot analysis. As to conditions: dose 10-100 nM, time 24-48 hrs, DDE = dose-dependent effect. In kind it is cell-based.
Series [12] relates to MOLM-13. As to the kind of experiment: Cell cycle arrest in human MOLM-13 cells assessed as accumulation at G0/G1 phase at 10 to 50 nM measured after 72 hrs by flow cytometry. In kind it is functional, cell-based. As to conditions: dose 10-50 nM.
The test system of series [13] is MV4-11. As to the kind of experiment: Cell cycle arrest in human MV4-11 cells assessed as accumulation at G0/G1 phase at 10 to 50 nM measured after 72 hrs by flow cytometry. It counts as functional, cell-based. As to conditions: dose 10-50 nM. For orientation: In flow cytometry, cells or beads pass a laser one at a time.
Series [14] has as its system MV4-11. The series can be described thus: Induction of apoptosis in human MV4-11 cells assessed as increase number of apoptotic cells at 10 to 50 nM measured after 72 hrs by propidium iodide staining based flow cytometry. As to conditions: dose 10-50 nM. It counts as functional, cell-based.
Series [15] deals with MV4-11. The series can be described thus: Induction of apoptosis in human MV4-11 cells assessed as increase number of necrotic cells at 10 to 50 nM measured after 72 hrs by propidium iodide staining based flow cytometry. In kind it is functional, cell-based. To be noted: dose 10-50 nM.
Series [16] has as its system MOLM-13. As to the kind of experiment: Induction of apoptosis in human MOLM-13 cells assessed as increase number of necrotic cells at 10 to 50 nM measured after 72 hrs by propidium iodide staining based flow cytometry. To be noted: dose 10-50 nM. It counts as functional, cell-based.
A further series deals with BNL. As to the kind of experiment: Cytotoxicity against mouse BNL cells assessed as cell viability at 10 to 50 nM measured after 72 hrs by ATP Cell titer-Glo assay. In kind it is toxicity, cell-based. To be noted: 0.05 µM, dose 10-50 nM. On the technique in general: Cellular ATP, detected with luciferase, serves as a proxy for viable cell number.
The next series relates to H9c2. As to the kind of experiment: Cytotoxicity against rat H9c2 cells assessed as cell viability at 10 to 50 nM measured after 72 hrs by ATP Cell titer-Glo assay. As to conditions: h9c2, 72 h, 0.05 µM, dose 10-50 nM. In kind it is toxicity, cell-based.
Series [17] addresses CDK2/Cyclin A2 (Homo sapiens) (UniProt P24941+P20248). The series can be described thus: Inhibition of His-tagged recombinant full length human CDK2/CyclinA expressed in baculovirus expression system at 1 uM by LanthaScreen assay.
Series [18] has as its target Fibroblast growth factor receptor 3 (Homo sapiens) (UniProt P22607). The series can be described thus: Inhibition of FGFR3 (unknown origin) at 1 uM.
The target of series [19] is Vascular endothelial growth factor receptor 1 (Homo sapiens) (UniProt P17948). As to the kind of experiment: Inhibition of human recombinant FLT1 expressed in baculovirus expression system at 1 uM by LanthaScreen assay.
The target in series [20] is Vascular endothelial growth factor receptor 3 (Homo sapiens) (UniProt P35916). The series can be described thus: Inhibition of human recombinant FLT4 expressed in baculovirus expression system at 1 uM by LanthaScreen assay.
Series [21] concerns the target Insulin-like growth factor 1 receptor (Homo sapiens) (UniProt P08069). The series can be described thus: Inhibition of human recombinant IGF1R expressed in baculovirus expression system at 1 uM by LanthaScreen assay.
Series [22] addresses Vascular endothelial growth factor receptor 2 (Homo sapiens) (UniProt P35968). The series can be described thus: Inhibition of human recombinant KDR expressed in baculovirus expression system at 1 uM by LanthaScreen assay.
In series [23] the target is Mast/stem cell growth factor receptor Kit (Homo sapiens) (UniProt P10721). The series can be described thus: Inhibition of c-Kit (unknown origin) at 1 uM.
The target in series [24] is Tyrosine-protein kinase Lck (Homo sapiens) (UniProt P06239). As to the kind of experiment: Inhibition of human recombinant LCK expressed in baculovirus expression system at 1 uM by LanthaScreen assay.
For series [25], the target named is Platelet-derived growth factor receptor alpha (Homo sapiens) (UniProt P16234). As to the kind of experiment: Inhibition of PDGFRA (unknown origin) at 1 uM.
For series [26], the target named is Platelet-derived growth factor receptor beta (Homo sapiens) (UniProt P09619). The series can be described thus: Inhibition of human recombinant PDGFRB expressed in baculovirus expression system at 1 uM by LanthaScreen assay.
For series [27], the target named is Serine/threonine-protein kinase B-raf (Homo sapiens) (UniProt P15056). The series can be described thus: Inhibition of B-raf (unknown origin) at 1 uM.
Series [28] deals with Serine/threonine-protein kinase D2 (Homo sapiens) (UniProt Q9BZL6). As to the kind of experiment: Inhibition of human recombinant PRKD2 expressed in baculovirus expression system at 1 uM by LanthaScreen assay.
The target in series [29] is Serine/threonine-protein kinase pim-1 (Homo sapiens) (UniProt P11309). The series can be described thus: Inhibition of human recombinant PIM1 expressed in baculovirus expression system at 1 uM by LanthaScreen assay.
Series [30] concerns the target Proto-oncogene tyrosine-protein kinase Src (Homo sapiens) (UniProt P12931). The series can be described thus: Inhibition of human recombinant Src expressed in baculovirus expression system at 1 uM by LanthaScreen assay.
Series [31] addresses BDNF/NT-3 growth factors receptor (Homo sapiens) (UniProt Q16620). As to the kind of experiment: Inhibition of human recombinant TrkB expressed in baculovirus expression system at 1 uM by LanthaScreen assay.
Series [32] deals with NT-3 growth factor receptor (Homo sapiens) (UniProt Q16288). As to the kind of experiment: Inhibition of human recombinant TrkC expressed in baculovirus expression system at 1 uM by LanthaScreen assay.
The target in series [33] is T1, Receptor-type tyrosine-protein kinase FLT3.
Description: Inhibition of recombinant His-tagged human FLT3 (564 to 958 residues) expressed in baculovirus expression system by LanthaScreen assay
In series [34] the target is T2, Receptor-type tyrosine-protein kinase FLT3.
For series [35], the target named is T3, Receptor-type tyrosine-protein kinase FLT3. This is another data set of the same source.
In series [36] the target is High affinity nerve growth factor receptor (Homo sapiens, UniProt P04629).
Description: Inhibition of recombinant His-tagged human TrKA expressed in baculovirus expression system by LanthaScreen assay
Series [37] deals with MOLM-13. The series can be described thus: cells. To be noted: Homo sapiens, MOLM-13, 72 h.
The test system of series [38] is MV4-11. As to the kind of experiment: cells. To be noted: Homo sapiens, MV4-11, 72 h.

Serine/threonine-protein kinase pim-1 (Homo sapiens), sequence (P11309 whole entry, looked up): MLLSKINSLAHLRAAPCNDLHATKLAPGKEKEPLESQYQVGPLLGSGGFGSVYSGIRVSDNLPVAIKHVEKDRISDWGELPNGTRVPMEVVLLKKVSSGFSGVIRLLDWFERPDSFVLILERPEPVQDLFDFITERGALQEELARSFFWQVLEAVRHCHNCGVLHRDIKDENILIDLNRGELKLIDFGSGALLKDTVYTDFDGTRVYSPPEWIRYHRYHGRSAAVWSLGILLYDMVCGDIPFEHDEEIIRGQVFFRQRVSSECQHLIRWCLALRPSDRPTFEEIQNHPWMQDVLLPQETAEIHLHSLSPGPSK
Mast/stem cell growth factor receptor Kit (Homo sapiens), sequence (P10721 whole entry): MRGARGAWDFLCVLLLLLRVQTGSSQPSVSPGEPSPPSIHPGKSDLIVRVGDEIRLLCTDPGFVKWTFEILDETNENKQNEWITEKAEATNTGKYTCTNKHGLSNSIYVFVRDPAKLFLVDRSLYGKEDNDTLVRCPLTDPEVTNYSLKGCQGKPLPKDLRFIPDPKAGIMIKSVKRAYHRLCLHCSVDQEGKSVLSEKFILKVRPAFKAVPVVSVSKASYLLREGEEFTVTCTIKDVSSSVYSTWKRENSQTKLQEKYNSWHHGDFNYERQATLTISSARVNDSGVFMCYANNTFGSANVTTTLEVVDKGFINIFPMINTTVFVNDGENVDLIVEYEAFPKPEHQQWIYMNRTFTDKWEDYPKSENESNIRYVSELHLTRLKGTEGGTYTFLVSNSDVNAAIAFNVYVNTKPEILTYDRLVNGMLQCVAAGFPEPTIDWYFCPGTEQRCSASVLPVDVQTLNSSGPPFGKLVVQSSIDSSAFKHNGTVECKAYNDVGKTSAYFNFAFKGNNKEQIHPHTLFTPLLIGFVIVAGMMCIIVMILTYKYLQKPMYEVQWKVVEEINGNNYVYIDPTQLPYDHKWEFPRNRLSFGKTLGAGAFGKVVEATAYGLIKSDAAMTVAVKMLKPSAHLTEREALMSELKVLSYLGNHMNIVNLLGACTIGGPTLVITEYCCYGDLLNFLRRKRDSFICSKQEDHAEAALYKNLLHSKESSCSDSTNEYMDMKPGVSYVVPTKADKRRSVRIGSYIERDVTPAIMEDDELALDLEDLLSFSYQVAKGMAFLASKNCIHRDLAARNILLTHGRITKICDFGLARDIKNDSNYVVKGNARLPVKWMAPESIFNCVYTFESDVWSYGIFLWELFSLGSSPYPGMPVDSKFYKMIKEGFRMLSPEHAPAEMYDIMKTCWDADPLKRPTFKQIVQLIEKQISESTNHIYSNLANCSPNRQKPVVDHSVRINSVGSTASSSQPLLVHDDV
Vascular endothelial growth factor receptor 3 (Homo sapiens), sequence (P35916 whole entry): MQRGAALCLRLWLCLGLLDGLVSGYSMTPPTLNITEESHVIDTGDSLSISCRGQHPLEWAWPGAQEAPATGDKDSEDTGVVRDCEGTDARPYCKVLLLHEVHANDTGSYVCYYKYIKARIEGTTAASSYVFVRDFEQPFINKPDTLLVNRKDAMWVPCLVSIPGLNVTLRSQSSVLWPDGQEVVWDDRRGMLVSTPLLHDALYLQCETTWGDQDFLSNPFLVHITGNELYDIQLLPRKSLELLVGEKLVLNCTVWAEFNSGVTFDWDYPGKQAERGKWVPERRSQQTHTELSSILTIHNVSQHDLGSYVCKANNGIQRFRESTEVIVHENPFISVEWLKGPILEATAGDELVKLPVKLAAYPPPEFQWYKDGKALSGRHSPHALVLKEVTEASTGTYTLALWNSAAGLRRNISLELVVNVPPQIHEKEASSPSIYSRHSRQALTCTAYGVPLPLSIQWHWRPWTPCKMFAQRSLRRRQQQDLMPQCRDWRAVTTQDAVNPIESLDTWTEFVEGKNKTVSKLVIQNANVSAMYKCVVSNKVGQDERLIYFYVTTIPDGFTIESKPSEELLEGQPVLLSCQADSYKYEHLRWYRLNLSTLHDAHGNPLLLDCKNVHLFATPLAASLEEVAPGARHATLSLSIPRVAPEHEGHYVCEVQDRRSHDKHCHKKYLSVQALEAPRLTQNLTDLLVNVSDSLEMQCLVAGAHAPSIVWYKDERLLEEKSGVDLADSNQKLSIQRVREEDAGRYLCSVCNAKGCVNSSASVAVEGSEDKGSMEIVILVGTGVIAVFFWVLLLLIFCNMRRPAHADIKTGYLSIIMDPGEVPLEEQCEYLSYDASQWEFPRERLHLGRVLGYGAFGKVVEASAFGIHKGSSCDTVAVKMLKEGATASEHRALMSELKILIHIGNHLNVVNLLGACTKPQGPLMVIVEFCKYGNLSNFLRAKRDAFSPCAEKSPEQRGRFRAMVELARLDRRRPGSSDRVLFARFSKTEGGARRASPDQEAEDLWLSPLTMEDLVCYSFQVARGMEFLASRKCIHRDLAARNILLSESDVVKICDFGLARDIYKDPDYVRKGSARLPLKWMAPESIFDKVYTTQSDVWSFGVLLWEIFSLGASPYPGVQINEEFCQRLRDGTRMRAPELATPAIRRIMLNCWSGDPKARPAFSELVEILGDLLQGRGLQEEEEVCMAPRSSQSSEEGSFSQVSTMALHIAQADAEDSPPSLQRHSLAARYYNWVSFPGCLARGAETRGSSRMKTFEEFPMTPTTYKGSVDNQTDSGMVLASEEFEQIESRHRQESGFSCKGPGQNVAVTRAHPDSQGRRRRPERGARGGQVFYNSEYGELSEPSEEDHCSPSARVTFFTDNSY
Vascular endothelial growth factor receptor 2 (Homo sapiens), sequence (P35968 whole entry): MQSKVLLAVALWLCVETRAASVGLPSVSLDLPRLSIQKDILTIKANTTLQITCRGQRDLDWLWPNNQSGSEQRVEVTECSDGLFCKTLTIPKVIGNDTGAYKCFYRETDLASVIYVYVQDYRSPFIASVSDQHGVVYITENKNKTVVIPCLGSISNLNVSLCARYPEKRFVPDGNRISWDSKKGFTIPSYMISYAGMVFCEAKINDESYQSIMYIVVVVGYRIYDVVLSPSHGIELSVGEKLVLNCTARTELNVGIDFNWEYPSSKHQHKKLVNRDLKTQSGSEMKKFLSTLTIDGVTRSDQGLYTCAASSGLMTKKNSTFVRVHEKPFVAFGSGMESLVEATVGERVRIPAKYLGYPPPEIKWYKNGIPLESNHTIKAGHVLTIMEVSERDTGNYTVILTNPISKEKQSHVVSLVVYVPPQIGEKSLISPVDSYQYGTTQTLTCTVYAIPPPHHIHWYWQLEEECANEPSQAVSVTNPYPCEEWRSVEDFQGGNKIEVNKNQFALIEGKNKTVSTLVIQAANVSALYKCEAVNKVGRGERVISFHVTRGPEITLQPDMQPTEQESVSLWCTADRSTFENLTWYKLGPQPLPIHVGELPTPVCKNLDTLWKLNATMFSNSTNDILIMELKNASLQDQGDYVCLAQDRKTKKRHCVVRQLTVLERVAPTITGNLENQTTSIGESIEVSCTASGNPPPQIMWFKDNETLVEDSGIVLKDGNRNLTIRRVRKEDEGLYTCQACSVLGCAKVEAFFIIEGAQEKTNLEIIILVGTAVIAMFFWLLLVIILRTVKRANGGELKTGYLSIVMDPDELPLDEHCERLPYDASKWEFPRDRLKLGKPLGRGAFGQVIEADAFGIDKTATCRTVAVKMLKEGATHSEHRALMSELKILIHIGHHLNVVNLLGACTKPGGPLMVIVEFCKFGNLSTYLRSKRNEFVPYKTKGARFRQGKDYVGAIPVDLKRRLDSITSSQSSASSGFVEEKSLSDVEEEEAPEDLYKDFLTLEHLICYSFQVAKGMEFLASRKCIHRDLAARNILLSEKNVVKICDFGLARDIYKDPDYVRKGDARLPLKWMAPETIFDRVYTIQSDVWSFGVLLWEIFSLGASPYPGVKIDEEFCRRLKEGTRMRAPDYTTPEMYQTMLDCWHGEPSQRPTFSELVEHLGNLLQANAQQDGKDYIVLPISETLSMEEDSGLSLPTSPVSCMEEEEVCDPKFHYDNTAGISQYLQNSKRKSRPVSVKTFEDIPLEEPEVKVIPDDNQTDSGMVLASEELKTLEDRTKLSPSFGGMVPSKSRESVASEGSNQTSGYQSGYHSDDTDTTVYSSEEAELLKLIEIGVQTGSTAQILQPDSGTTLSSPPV
Platelet-derived growth factor receptor alpha (Homo sapiens), sequence (P16234 whole entry): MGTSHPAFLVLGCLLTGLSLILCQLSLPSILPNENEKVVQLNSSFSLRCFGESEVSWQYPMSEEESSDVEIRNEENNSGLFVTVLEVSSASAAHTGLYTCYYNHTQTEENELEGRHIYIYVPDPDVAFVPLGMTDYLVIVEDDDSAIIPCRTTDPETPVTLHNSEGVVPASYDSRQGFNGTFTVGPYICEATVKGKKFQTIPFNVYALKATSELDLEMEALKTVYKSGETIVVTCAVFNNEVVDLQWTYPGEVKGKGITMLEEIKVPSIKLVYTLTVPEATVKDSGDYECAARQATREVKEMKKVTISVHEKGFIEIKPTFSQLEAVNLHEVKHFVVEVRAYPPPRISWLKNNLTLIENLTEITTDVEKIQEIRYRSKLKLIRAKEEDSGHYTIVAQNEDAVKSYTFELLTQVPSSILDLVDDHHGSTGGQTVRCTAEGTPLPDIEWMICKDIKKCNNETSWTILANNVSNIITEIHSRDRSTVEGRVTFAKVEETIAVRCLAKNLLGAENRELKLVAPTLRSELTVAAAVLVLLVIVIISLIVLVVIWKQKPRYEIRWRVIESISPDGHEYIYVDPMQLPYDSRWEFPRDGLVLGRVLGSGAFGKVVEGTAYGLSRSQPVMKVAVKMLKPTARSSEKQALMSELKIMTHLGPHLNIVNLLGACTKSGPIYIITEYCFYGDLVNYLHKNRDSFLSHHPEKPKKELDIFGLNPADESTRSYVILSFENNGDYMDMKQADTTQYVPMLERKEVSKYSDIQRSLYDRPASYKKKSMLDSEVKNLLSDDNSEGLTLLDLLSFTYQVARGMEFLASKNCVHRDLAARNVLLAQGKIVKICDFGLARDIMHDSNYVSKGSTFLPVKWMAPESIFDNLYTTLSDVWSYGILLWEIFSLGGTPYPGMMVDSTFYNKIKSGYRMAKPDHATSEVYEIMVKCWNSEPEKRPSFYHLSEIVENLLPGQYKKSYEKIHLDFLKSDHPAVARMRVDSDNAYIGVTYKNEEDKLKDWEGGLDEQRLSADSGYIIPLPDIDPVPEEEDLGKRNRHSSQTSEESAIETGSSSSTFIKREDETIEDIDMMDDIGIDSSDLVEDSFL

Broadly, the IC50 is the concentration needed to halve the response being measured. Take `CCc1nc(C(N)=O)c(Cc2ccc(N3CCC(N4CCN(C)CC4)CC3)c(OC)c2)nc1CN1CCOCC1`: the half-maximal inhibitory concentration (IC50) in [1] turned out to be 0.29 nM; in series [2] it was 1.8 nM; in series [3] it was 1.6 nM.
A word on the inhibition: it is the share of the control response that was lost under treatment. As for `CC(=O)Nc1ccc(-n2cnc3cc(-c4ccc(OCCN5CCCCC5)cc4)ccc32)cc1`, the inhibition in series [4] is 63%; in series [8], “Dde”; in series [9], “Dde”; in series [10], “Dde”; in [11] it was “Dde”; in [17] it was 2%. The inhibition in series [18] was determined as 13%; in series [19], 13%; in series [20] it was 24%; in series [21], 11%; in [22], 77%; in series [23], 36%. The inhibition was 78% in series [24]; 41% in series [25]; 33% in series [26]; 5% in series [27]; 19% in series [28]; 9% in series [29]. Also, the values for the inhibition in [30], in series [31] and in [32] were 27%, 70% and 79%, respectively. Besides, the result in the series on MOLM-13 [5], in the series with MOLM-13 [12], in the series with MV4-11 [13], with MV4-11 [14], with MV4-11 [15] and in the series with MOLM-13 [16] was Active. For the same compound, the inhibition result in the series with MV4-11 [6] and in the series on MOLM-13 [7] was “Active” each time. Moreover, the half-maximal inhibitory concentration (IC50) with KM12 is 358 nM; in [33], 43.8 nM; in [34], 97.2 nM; in series [35] it was 92.5 nM; in [36], 23.6 nM; with MOLM-13 [37] it was 38.8 nM. The compound also came in with an IC50 in the series with MV4-11 [38] of 54.9 nM. The Activity result in the series on BNL and in the series with H9c2 was “Non-Toxic” each time.
